# Data from patent publication US8481495B2 (TetraLogic Pharmaceuticals Corporation, priority 2009, dated 2013).
# Columns and labels:
# XIAP BIR-3 = molecular target: T1, XIAP BIR-3 (Homo sapiens, UniProt P98170); experiment: Fluorescence polarization binding to XIAP BIR-3 with labeled peptide AbuRPF-K(5-Fam)-NH2; conditions: XIAP BIR-3, 40 nM BIR3, 5 nM labeled peptide, 15 min RT, pH 7.5; read-out: XIAP, nM (binding affinity KD, as range)
# T1 construct: 40 nM of the respective IAP BIR3
# Protocol: (§1) The binding affinities of the compounds are reported as a KD value (μM). Briefly, various concentrations of test peptides were mixed with 5 nM of the fluorescently labeled peptide (i.e., a mutated N-terminal Smac peptide-AbuRPF-K(5-Fam)-NH2) and 40 nM of the respective IAP BIR3 for 15 min at RT in […] of 0.1M Potassium Phosphate buffer, pH 7.5 containing […] bovine g-globulin. Following incubation, the polarization values (mP) were measured on a Victor2V™ (available from PerkinElmer® Life Sciences) using a 485 nm excitation filter and a 520 nm emission filter. The reported binding affinities (KD values) are supplied as ranges (A=<0.1 μM, B=0.1 μM to 1 μM, C=>1 μM to 10 μM, D=>10 μM).
# SK-OV-3 cells = experiment: MTT cell growth inhibition assay in ovarian cancer cell line SK-OV-3; format: cell-based; conditions: Homo sapiens, 72 hrs incubation, read-out: SKOV3, nM (CC50, concentration giving 50% cell survival, as range)
# Protocol: Compounds of the invention also were tested for their ability to inhibit the growth of an ovarian cancer cell line, SK-OV-3. A known assay previously used for measuring cell growth (as described in Hansen, M. B., Nielsen, S. E., and Berg, K. (1989) J. Immunol. Methods 119, 203-210 and incorporated herein by reference in its entirety) was used. Briefly, SK-OV-3 cells are seeded in 96-well plates in McCoy's medium containing 10% fetal bovine serum albumin (5,000 per well) and incubated overnight at 37° C. The next day, test compounds are added at various concentrations (0.003-10 μM) and the plates are incubated at 37° C. for an additional 72 hrs. This incubation time was considered to be optimal for measuring inhibitory effects of the different compounds tested. 50 microliters of 5 mg/mL MTT reagent is added to each well and the plates are incubated at 37° C. for another three (3) hours. At the end of the three (3) hour incubation period, 50 microliters of DMSO is added to each well to dissolve cells and the optical density (OD) of the wells is measured with a microplate reader (Victor^2 1420™, Wallac, Finland) at 535 nm. Cell survival (CS) was calculated using the following equation: CS=(OD treated well/mean OD control wells)×100%.
# The CC50 (reported in the following tables), is defined as the drug concentration that results in 50% cell survival (CS), and is derived by calculating the point where the dose-response curve crosses the 50% CS point using GraphPad Prism® graphing software. The reported CC50 values are supplied as ranges (A=<0.1 μM, B=0.1 μM to 1 μM, C=>1 μM to 10 μM, D=>10 μM).
# cIAP-1 BIR-3 = molecular target: T2, cIAP-1 BIR-3 (Homo sapiens, UniProt Q13490); experiment: Fluorescence polarization binding to cIAP-1 BIR-3 with labeled peptide AbuRPF-K(5-Fam)-NH2; conditions: cIAP-1 BIR-3, 40 nM BIR3, 5 nM labeled peptide, 15 min RT, pH 7.5; read-out: cIAP1, nM (binding affinity KD, as range)
# T2 construct: 40 nM of the respective IAP BIR3
# Protocol: as §1
# T2 sequence (Q13490 253-363 limits assumed): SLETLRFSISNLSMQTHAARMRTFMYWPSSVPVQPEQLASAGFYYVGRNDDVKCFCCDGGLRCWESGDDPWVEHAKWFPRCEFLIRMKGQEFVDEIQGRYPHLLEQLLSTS
# T1 sequence (P98170 241-356 limits assumed): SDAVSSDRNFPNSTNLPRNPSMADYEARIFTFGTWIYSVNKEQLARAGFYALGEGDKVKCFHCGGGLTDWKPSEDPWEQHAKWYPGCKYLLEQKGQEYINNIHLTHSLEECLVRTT
Kd (XIAP BIR-3) [nM],Kd (cIAP-1 BIR-3) [nM],SMILES,CC50 (SK-OV-3 cells) [nM]
100 to 1000,< 100,"CN[C@@H](C)C(=O)N[C@H](C(=O)N1CC[C@@H]2[C@H]1[C@@H](C(=O)Nc1ccccc1)CN2S(C)(=O)=O)C1CCCCC1 [Example 8, 4-[2-Cyclohexyl-2-(2-methylamino-propionylamino)-acetyl]-1-methanesulfonyl-octahydro-pyrrolo[3,2-b]pyrrole-3-carboxylic acid phenylamide]",< 100
< 100,< 100,"CN[C@@H](C)C(=O)N[C@H](C(=O)N1CC[C@@H]2[C@H]1[C@@H](C(=O)Nc1cccc3ccccc13)CN2S(C)(=O)=O)C1CCCCC1 [Example 17, 4-[2-Cyclohexyl-2-(2-methylamino-propionylamino)-acetyl]-1-methanesulfonyl-octahydro-pyrrolo[3,2-b]pyrrole-3-carboxylic acid naphthalen-1-ylamide]",< 100
100 to 1000,< 100,"CN[C@@H](C)C(=O)N[C@H](C(=O)N1CC[C@@H]2[C@H]1[C@@H](C(=O)N[C@H]1CCc3ccccc31)CN2S(C)(=O)=O)C1CCCCC1 [Example 12, 4-[2-Cyclohexyl-2-(2-methylamino-propionylamino)-acetyl]-1-methanesulfonyl-octahydro-pyrrolo[3,2-b]pyrrole-3-carboxylic acid indan-1-ylamide]",100 to 1000
< 100,< 100,"CN[C@@H](C)C(=O)N[C@H](C(=O)N1CC[C@@H]2[C@H]1[C@@H](C(=O)Nc1ccccc1)CN2S(C)(=O)=O)C(C)(C)C [Example 22, 4-[3,3-Dimethyl-2-(2-methylamino-propionylamino)-butyryl]-1-methanesulfonyl-octahydro-pyrrolo[3,2-b]pyrrole-3-carboxylic acid phenylamide]",< 100
1000 to 10000,< 100,"CN[C@@H](C)C(=O)N[C@H](C(=O)N1CC[C@@H]2[C@H]1[C@@H](C(=O)NC1CCCCC1)CN2S(C)(=O)=O)C1CCCCC1 [Example 5, 4-[2-Cyclohexyl-2-(2-methylamino-propionylamino)-acetyl]-1-methanesulfonyl-octahydro-pyrrolo[3,2-b]pyrrole-3-carboxylic acid cyclohexylamide]",1000 to 10000
1000 to 10000,< 100,"CN[C@@H](C)C(=O)N[C@H](C(=O)N1CC[C@@H]2[C@H]1[C@@H](C(=O)N[C@@H](Cc1ccccc1)C(=O)O)CN2S(C)(=O)=O)C1CCCCC1 [Example 30, 2-({4-[2-Cyclohexyl-2-(2-methylamino-propionylamino)-acetyl]-1-methanesulfonyl-octahydro-pyrrolo[3,2-b]pyrrole-3-carbonyl}-amino)-3-phenyl-propionic acid]",1000 to 10000
< 100,< 100,"CN[C@@H](C)C(=O)N[C@H](C(=O)N1CC[C@@H]2[C@H]1[C@@H](C(=O)NCC1CCCCC1)CN2S(C)(=O)=O)C1CCCCC1 [Example 19, 4-[2-Cyclohexyl-2-(2-methylamino-propionylamino)-acetyl]-1-methanesulfonyl-octahydro-pyrrolo[3,2-b]pyrrole-3-carboxylic acid cyclohexylmethyl-amide]",< 100
< 100,< 100,"CN[C@@H](C)C(=O)N[C@H](C(=O)N1CC[C@@H]2[C@H]1[C@@H](C(=O)Nc1cc(C)nn1-c1ccccc1)CN2S(C)(=O)=O)C(C)(C)C [Example 26, 4-[3,3-Dimethyl-2-(2-methylamino-propionylamino)-butyryl]-1-methanesulfonyl-octahydro-pyrrolo[3,2-b]pyrrole-3-carboxylic acid (5-methyl-2-phenyl-2H-pyrazol-3-yl)-amide]",100 to 1000
< 100,< 100,"CN[C@@H](C)C(=O)N[C@H](C(=O)N1CC[C@@H]2[C@H]1[C@@H](C(=O)N[C@H]1CCCc3ccccc31)CN2S(C)(=O)=O)C(C)(C)C [Example 23, 4-[3,3-Dimethyl-2-(2-methylamino-propionylamino)-butyryl]-1-methanesulfonyl-octahydro-pyrrolo[3,2-b]pyrrole-3-carboxylic acid (1,2,3,4-tetrahydro-naphthalen-1-yl)-amide]",100 to 1000
100 to 1000,< 100,"CN[C@@H](C)C(=O)N[C@H](C(=O)N1CC[C@@H]2[C@H]1[C@@H](C(=O)N[C@H](C)c1ccccc1)CN2S(C)(=O)=O)C1CCCCC1 [Example 7, 4-[2-Cyclohexyl-2-(2-methylamino-propionylamino)-acetyl]-1-methanesulfonyl-octahydro-pyrrolo[3,2-b]pyrrole-3-carboxylic acid (1-phenyl-ethyl)-amide]",100 to 1000
100 to 1000,< 100,"CN[C@@H](C)C(=O)N[C@H](C(=O)N1CC[C@@H]2[C@H]1[C@@H](C(=O)N[C@@H]1CCCc3ccccc31)CN2c1ncccn1)C1CCCCC1 [Example 43, 4-[2-Cyclohexyl-2-(2-methylamino-propionylamino)-acetyl]-1-pyrimidin-2-yl-octahydro-pyrrolo[3,2-b]pyrrole-3-carboxylic acid (1,2,3,4-tetrahydro-naphthalen-1-yl)-amide]",< 100
< 100,< 100,"CN[C@@H](C)C(=O)N[C@H](C(=O)N1CC[C@@H]2[C@H]1[C@@H](C(=O)N1Cc3ccccc3C1)CN2S(C)(=O)=O)C1CCCCC1 [Example 13, N-{1-Cyclohexyl-2-[6-(1,3-dihydro-isoindole-2-carbonyl)-4-methanesulfonyl-hexahydro-pyrrolo[3,2-b]pyrrol-1-yl]-2-oxo-ethyl}-2-methylamino-propionamide]",< 100
100 to 1000,100 to 1000,"CN[C@@H](C)C(=O)N[C@H](C(=O)N1CC[C@@H]2[C@H]1[C@@H](C(=O)N[C@@H](Cc1ccccc1)C(=O)OC)CN2S(C)(=O)=O)C1CCCCC1 [Example 10, 2-({4-[2-Cyclohexyl-2-(2-methylamino-propionylamino)-acetyl]-1-methanesulfonyl-octahydro-pyrrolo[3,2-b]pyrrole-3-carbonyl}-amino)-3-phenyl-propionic acid methyl ester]",1000 to 10000
< 100,< 100,"CNC(=O)N1C[C@H](C(=O)NCc2ccc(F)cc2)[C@@H]2[C@H]1CCN2C(=O)[C@@H](NC(=O)[C@H](C)NC)C(C)(C)C [Example 41, 4-[3,3-Dimethyl-2-(2-methylamino-propionylamino)-butyryl]-hexahydro-pyrrolo[3,2-b]pyrrole-1,3-dicarboxylic acid 3-(4-fluoro-benzylamide) 1-methylamide]",< 100
< 100,< 100,"CN[C@@H](C)C(=O)N[C@H](C(=O)N1CC[C@@H]2[C@H]1[C@@H](C(=O)Nc1cccc3ncccc13)CN2S(C)(=O)=O)C(C)(C)C [Example 47, 4-[3,3-Dimethyl-2-(2-methylamino-propionylamino)-butyryl]-1-methanesulfonyl-octahydro-pyrrolo[3,2-b]pyrrole-3-carboxylic acid quinolin-5-ylamide]",< 100
